# Measurements from article PMC9078821, “The synthesis of axially disubstituted silicon phthalocyanines, their quaternized derivatives and first inhibitory effect on human cytosolic carbonic anhydrase isozymes hCA I and II” (RSC Advances, 2018).
# Legend:
# hCA I = biological target: T1, hCA I (Homo sapiens, UniProt P00915); experiment: Esterase activity assay with 4-nitrophenylacetate as substrate, hCA I; format: biochemical; details: for IC50: 4-nitrophenylacetate substrate, pH 7.4, 25 °C, enzyme purified from human erythrocytes, errors 2–5%, three assays; for hCA I inhibition, result in words: ranking within the series
# T1 construct: from tissue; host or cells: human erythrocytes (fresh human blood)
# Method: (§1) Erythrocytes were purified from fresh human blood obtained from the Blood Centre of the Research Hospital at Atatürk University. The blood samples were centrifuged at 1500 rpm for 15 min and the plasma and buffy coat were removed. The red cells were isolated and washed twice with 0.9% NaCl, and hemolyzed with 1.5 volumes of ice-cold water. The ghost and intact cells were removed by centrifugation at 20 000 rpm for 30 min at 4 °C. The pH of the hemolysate was adjusted to 8.7 with solid Tris.[27] […] The affinity gel was washed with 25 mM Tris–HCl/22 mM Na2SO4 (pH 8.7). The human carbonic anhydrase (hCA I and hCA II) isozymes were eluted with 1 M NaCl/25 mM Na2HPO4 (pH 6.3) and 0.1 M CH3COONa/0.5 M NaClO4 (pH 5.6), respectively. All procedures were performed at 4 °C.[27]
# (§2) Carbonic anhydrase activity was assayed by following the change in absorbance at 348 nm of 4-nitrophenylacetate (NPA) to 4-nitrophenylate ion over a period of 3 min at 25 °C using a spectrophotometer (Shimadzu UV-1800) according to the method described by Verpoorte et al.[28] The enzymatic reaction, in a total volume of 3.0 mL, contained 1.4 mL 0.05 M Tris–SO4 buffer (pH 7.4), 1 mL 3 mM 4-nitrophenylacetate, 0.5 mL H2O and 0.1 mL enzyme solution. A reference measurement was obtained by preparing the same cuvette without enzyme solution. The inhibitory effects of compounds were examined. All compounds were tested in triplicate at each concentration used. Different inhibitor concentrations were used. Control cuvette activity in the absence of inhibitor was taken as 100%. For each inhibitor an activity (%)–[inhibitor] graphs were drawn.[29]
# hCA II = biological target: T2, hCA II (Homo sapiens, UniProt P00918); experiment: Esterase activity assay with 4-nitrophenylacetate as substrate, hCA II; format: biochemical; details: 4-nitrophenylacetate substrate, pH 7.4, 25 °C, enzyme purified from human erythrocytes, errors 2–5%, three assays
# T2 construct: from tissue; host or cells: human erythrocytes (fresh human blood)
# Method: as §1, §2
# T1 sequence (P00915 whole entry): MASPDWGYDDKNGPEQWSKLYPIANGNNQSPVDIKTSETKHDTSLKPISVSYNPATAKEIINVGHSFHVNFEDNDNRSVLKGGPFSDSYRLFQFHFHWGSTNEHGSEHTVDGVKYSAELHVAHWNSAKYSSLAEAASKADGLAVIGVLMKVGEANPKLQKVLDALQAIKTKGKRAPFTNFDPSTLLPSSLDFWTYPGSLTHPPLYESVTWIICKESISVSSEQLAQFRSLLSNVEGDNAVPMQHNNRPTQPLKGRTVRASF
SMILES,IC50 (hCA I),"hCA I inhibition, result in words (hCA I)",IC50 (hCA II)
c1ccc2c(c1)C1=NC2=Nc2c3ccccc3c3n2[Si](OCc2cc(OCCN4CCOCC4)cc(OCCN4CCOCC4)c2)(OCc2cc(OCCN4CCOCC4)cc(OCCN4CCOCC4)c2)n2c(c4ccccc4c2=NC2=NC(=N3)c3ccccc32)=N1 [ZM-1-Si],0.165 µM,moderately inhibited,0.121 µM
"CN(C)c1ccc(/C=C/C(=O)c2ccc(O[Si]3(Oc4ccc(C(=O)/C=C/c5ccc(N(C)C)cc5)cc4)n4c5c6ccccc6c4N=C4N=C(N=c6c7ccccc7c(n63)=NC3=NC(=N5)c5ccccc53)c3ccccc34)cc2)cc1 [ZT-Si, Bis[(2E)-3-[4-(dimethylamino)phenyl]-1-(4-phenoxy)prop-2-en-1-one]phthalocyaninato silicon(IV)]",0.0178 µM,among the best inhibitors,0.0172 µM
C[N+]1(CCOc2cc(CO[Si]3(OCc4cc(OCC[N+]5(C)CCOCC5)cc(OCC[N+]5(C)CCOCC5)c4)n4c5c6ccccc6c4N=C4N=C(N=c6c7ccccc7c(n63)=NC3=NC(=N5)c5ccccc53)c3ccccc34)cc(OCC[N+]3(C)CCOCC3)c2)CCOCC1 [ZM-1-SiQ],0.071 µM,–,0.0544 µM
CCN(CC)c1cccc(OCCOCCO[Si]2(OCCOCCOc3cccc(N(CC)CC)c3)n3c4c5ccccc5c3N=C3N=C(N=c5c6ccccc6c(n52)=NC2=NC(=N4)c4ccccc42)c2ccccc23)c1 [ZM-5-Si],0.084 µM,–,0.0762 µM
CC[N+](C)(CC)c1cccc(OCCOCCO[Si]2(OCCOCCOc3cccc([N+](C)(CC)CC)c3)n3c4c5ccccc5c3N=C3N=C(N=c5c6ccccc6c(n52)=NC2=NC(=N4)c4ccccc42)c2ccccc23)c1 [ZM-5-SiQ],0.0243 µM,–,0.0363 µM
